Experimental findings from PubChem BioAssay (NCI) are described below.

“And” between values parts separate entries of the source, which are not always exact repeats. Identical values can stand only once.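 Cells were grown in 96-well plates and exposed to each compound for 48 hours at five concentrations; endpoints were interpolated linearly between bracketing concentrations, or set to the highest concentration if not reached. GI50 marks 50% less growth. Definition used: TGI = concentration required for complete inhibition of growth.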 Some results are limits rather than exact numbers.

Holding throughout (test): inhibition of tumour cell growth, NCI panel, 48 h
In test [1] the test system is COLO 205 colon.
Test [2] has as its system HCC-2998 colon.
Test [3] concerns HCT-15 colon.
In test [4] the test system is HT29 colon.
Test [5] relates to M14 melanoma.
In test [6] the test system is NCI-H23 lung.
Test [7] concerns NCI-H522 lung.
The subject of test [8] is SN12C renal.
Test [9] relates to TK-10 renal.
Test [10] relates to U251 CNS.

Regarding `Cc1ccc(CCC(=O)C(=O)O)s1`, the TGI in test [1], in test [2], in test [3], in [4], in test [5] and in test [6] was more than 100 µM throughout. Also, the TGI in [7], in [8], in [9] and in test [10] was more than 100 µM throughout.
For `COc1ccc2nc3cc(Cl)ccc3c(NCCNc3c4ccc(Cl)cc4nc4ccc(OC)cc34)c2c1`, the GI50 in [1] was 1.64 µM; in [2], 1.79 µM; in test [5], 1.96 µM; in test [7] it was 1.72 µM; in [9], 1.97 µM; in test [10], 1.77 µM. Besides, the TGI in [1] amounted to 3.39 µM; in [2] it was 3.28 µM; in test [5] it was 3.58 µM; in test [7], 3.23 µM; in test [9], 3.42 µM; in test [10], 3.28 µM.
For the molecule `CCCCNC(=O)/N=C/c1c(O)c2ccccc2oc1=O`, the TGI in test [1], in [2], in test [3], in test [4], in test [5] and in [6] was more than 100 µM throughout. Also, the TGI in test [8] and in test [9] was more than 100 µM throughout.
For the molecule `COc1ccc(Sc2ccccc2N)cc1`, the TGI is 32.8 µM in test [1]; more than 100 µM in test [2]; more than 100 µM in test [3]; 50.5 µM in test [4]; more than 100 µM in test [5]; more than 100 µM in test [6]. For the same molecule, the TGI in test [8] is more than 100 µM; in test [9], more than 100 µM; in [10], 49.8 µM.
In the case of `O=C(N/N=C/c1cc(Br)cc(Br)c1[O-])c1ccccc1O.O=C(N/N=C/c1cc(Br)cc(Br)c1[O-])c1ccccc1O.[Ni+2]`, the TGI in [1] came to 3.22 µM; in [2] it was 1.39 µM; in test [3], 1.57 µM; in test [4] it was 2.24 µM; in test [5], 1.47 µM; in test [6], 2.65 µM. In addition, the results for the TGI in test [7], in test [9] and in [10] were 0.727 µM, 1.87 µM and 1.84 µM, respectively.
Consider `COC(=O)C(NC(=O)c1ccccc1)C(c1ccc(Cl)cc1)P(=O)(OC)OC` (centres undefined), for which the TGI in [1], in test [2], in [3], in [4], in test [5] and in test [6] was more than 100 µM throughout. Also, the TGI in test [7], in [8], in [9] and in [10] was more than 100 µM throughout.
In the case of `NCCCNCCCCN1CC1`, the TGI in test [1] is 4.06 µM; in test [2] it was more than 36.2 µM; in test [3], more than 33.2 µM; in test [4] it was more than 37.5 µM; in test [5] it was more than 22.6 µM; in [6] it was more than 28 µM. Besides, the TGI in test [7] was 11.4 µM; in test [9], more than 23.2 µM; in [10] it was more than 26.2 µM.
On to `COc1ccc(N2NC(c3ccccc3)(c3ccccc3)C(C)C2=O)cc1` (centres undefined), for which the TGI in [1] was 34 µM; in test [2] it was more than 100 µM; in [3] it was more than 100 µM; in test [4], more than 100 µM; in [5], more than 100 µM; in test [6] it was more than 100 µM. Moreover, the TGI in test [7], in test [8], in test [9] and in [10] was more than 100 µM in each case.
`COc1ccc(-c2nn(-c3ccc(NC(=O)Nc4ccc(Cl)c(C(F)(F)F)c4)cc3)cc2-c2ccncc2)cc1Cl`: the GI50 is 1.62 µM in test [1]; 2.19 µM in test [2]; 1.12 µM in test [3]; 1.65 µM in test [4]; 1.49 µM in [5]; 1.77 µM in test [6]. In addition, the GI50 is 1.27 µM in test [7], 2.23 µM in [8], 1.41 µM in [9] and 0.928 µM in [10]. Also, the TGI in [1] was found to be 3.13 µM; in test [2], 7.97 µM; in test [3] it was 3.03 µM; in test [4], 4.57 µM; in test [5], 3.13 µM; in [6] it was 8.17 µM. The TGI turned out to be 3.95 µM in test [7], 8.69 µM in [8], 5.27 µM in [9] and 2.59 µM in [10].
For `CN(C)/N=N/c1nc[nH]c1C(N)=O`, the GI50 in test [1] is 139 µM; in test [2] it was 58.4 µM; in test [3] it was 73.8 µM; in test [4] it was 607 µM; in test [5], 92.8 µM; in test [7], 82 µM. Also, the GI50 in test [8] was 60.6 µM; in [9] it was 46.8 µM; in test [10], 71.5 µM. Further, the TGI in test [1] is more than 1000 µM; in test [2] it was 99.5 µM and > 654 µM; in test [3] it was more than 1000 µM; in [4] it was more than 1000 µM; in test [5], more than 1000 µM; in [7] it was 89.3 µM and > 779 µM. In addition, the TGI in [8] was more than 1000 µM; in [9], 828 µM; in test [10] it was more than 1000 µM.
With `COC1OC2=CCC3C(=O)NC(=O)C3C2[C@H](OCc2ccccc2)C1OCc1ccccc1` (some centres undefined), the TGI was 11.4 µM in test [2]; 3.86 µM in test [3]; 3.36 µM in [4]; 3.19 µM in test [5]; 4.7 µM in test [6]; 3.18 µM in test [7]. Also, the TGI in test [8] was determined as 3.14 µM; in test [9], 3.12 µM; in test [10], 33.3 µM.
